Assay results: ChEMBL document CHEMBL1126634, “Cyclic sulfolanes as novel and high affinity P2 ligands for HIV-1 protease inhibitors” (J Med Chem, 1993)

Columns and labels:
[1] = biological target: Human immunodeficiency virus type 1 protease (Human immunodeficiency virus 1, UniProt Q72874); test: Tested against S2-binding site of HIV-1 protease
[2] = biological target: Human immunodeficiency virus type 1 protease (Human immunodeficiency virus 1) (UniProt Q72874); test: Antiviral potency of HIV-1 in MT-4 human T lymphoid cells with IIIb isolate; assay type: functional, cell-based
MT4 = test: Compound tested for the antiviral potency of HIV-1 in MT-4 human T lymphoid cells with IIIb isolate (n=5); assay type: functional; conditions: read-out: CIC95

| SMILES | IC50 [1] [nM] | IC95 [2] [nM] | IC95 (MT4) [nM] |
| --- | --- | --- | --- |
| CC[C@H]1[C@@H](OC(=O)N[C@@H](Cc2ccccc2)[C@H](O)CN2C[C@H]3CCCC[C@H]3C[C@H]2C(=O)NC(C)(C)C)CCS1(=O)=O | 5.4 | 400 | – |
| C[C@H]1OCC[C@H]1OC(=O)N[C@@H](Cc1ccccc1)[C@H](O)CN1C[C@H]2CCCC[C@H]2C[C@H]1C(=O)NC(C)(C)C | 169 | 1600 | – |
| CC(C)(C)NC(=O)[C@@H]1C[C@@H]2CCCC[C@@H]2CN1C[C@@H](O)[C@H](Cc1ccccc1)NC(=O)O[C@@H]1CCS(=O)(=O)C1 | 140 | > 800 | – |
| C[C@H]1[C@@H](OC(=O)N[C@@H](Cc2ccccc2)[C@H](O)CN2C[C@H]3CCCC[C@H]3C[C@H]2C(=O)NC(C)(C)C)CCS1(=O)=O | 11.4 | 200 | – |
| C[C@@H]1[C@H](OC(=O)N[C@@H](Cc2ccccc2)[C@H](O)CN2C[C@H]3CCCC[C@H]3C[C@H]2C(=O)NC(C)(C)C)CCS1(=O)=O | 22.3 | 200 | – |
| CC(C)(C)NC(=O)[C@@H]1C[C@@H]2CCCC[C@@H]2CN1C[C@@H](O)[C@H](Cc1ccccc1)NC(=O)O[C@H]1CCS(=O)(=O)C1 | 75 | – | 350 |
| C[C@@H]1OCC[C@@H]1OC(=O)N[C@@H](Cc1ccccc1)[C@H](O)CN1C[C@H]2CCCC[C@H]2C[C@H]1C(=O)NC(C)(C)C | 52.4 | 400 | – |

Continued, in another order:

| IC50 [1] [nM] | IC95 [2] [nM] | SMILES | IC95 (MT4) [nM] |
| --- | --- | --- | --- |
| 11 | 200 | CC(C)[C@H]1[C@@H](OC(=O)N[C@@H](Cc2ccccc2)[C@H](O)CN2C[C@H]3CCCC[C@H]3C[C@H]2C(=O)NC(C)(C)C)CCS1(=O)=O | – |
| 13.1 | 800 | CC[C@@H]1[C@H](OC(=O)N[C@@H](Cc2ccccc2)[C@H](O)CN2C[C@H]3CCCC[C@H]3C[C@H]2C(=O)NC(C)(C)C)CCS1(=O)=O | – |
| – | 800 | CC(C)(C)NC(=O)[C@@H]1C[C@@H]2CCCC[C@@H]2CN1C[C@@H](O)[C@H](Cc1ccccc1)NC(=O)O[C@H]1CCOC1 | – |
| 9 | – | CC(C)[C@H]1SCC[C@H]1OC(=O)N[C@@H](Cc1ccccc1)[C@H](O)CN1C[C@H]2CCCC[C@H]2C[C@H]1C(=O)NC(C)(C)C | – |
| 1030 | – | CC(C)(C)NC(=O)[C@@H]1C[C@@H]2CCCC[C@@H]2CN1C[C@@H](O)[C@H](Cc1ccccc1)NC(=O)OCCS(C)(=O)=O | – |
| 3 | 50 | CC(C)[C@@H]1[C@H](OC(=O)N[C@@H](Cc2ccccc2)[C@H](O)CN2C[C@H]3CCCC[C@H]3C[C@H]2C(=O)NC(C)(C)C)CCS1(=O)=O | – |
| 30 | 1500 | CC(C)C[C@@H]1[C@H](OC(=O)N[C@@H](Cc2ccccc2)[C@H](O)CN2C[C@H]3CCCC[C@H]3C[C@H]2C(=O)NC(C)(C)C)CCS1(=O)=O | – |
| 694 | – | NC(=O)OC[C@@H]1CCCOC1 | – |
| 12 | 400 | CC(C)C[C@H]1[C@@H](OC(=O)N[C@@H](Cc2ccccc2)[C@H](O)CN2C[C@H]3CCCC[C@H]3C[C@H]2C(=O)NC(C)(C)C)CCS1(=O)=O | – |
